Measured values as given in article PMC12668289 (RSC Chemical Biology, 2025).
Where “and” joins values, the source holds several entries; their conditions need not be identical. Equal values may be shown once. Read-outs that look alike come from different tables or passages of the source.

How the values were obtained:
[1] = test system: SLR; test: Bioluminescence quantum yield measurement; assay type: biochemical, Phrixothrix hirtus
Experimental: (§1) 1.5 Bioluminescence characterizations
(§2) Reactions of luciferases, including Photinus pyralis luciferase (Fluc), Phrixothrix hirtus luciferase (SLR), Pyrearinus termitilluminans […]
(§3) mM D-LH 2 analogues, 3 mM ATP, 6 mM MgCl2, and 10 µM luciferase in 0.2 ml of 100 mM HEPES-NaOH pH 8.0. […]
(§4) A reference light source was used for calibrating a sphere spectrometer equipped with a cooled CCD detector.
(§5) The absolute responsivity of each luciferase-luciferin reaction was calculated based on a linear standardization between total photon flux measured using the sphere spectrometer equipped with a cooled CCD detector and relative count values measured by a luminometer. Total photons emitted from the bioluminescence reaction of each luciferase-luciferin pair were measured using a calibrated luminometer. A reaction containing 0.5-5 nM of each luciferin, 3 mM ATP, 3 mM MgCl2 in 100 mM Tris-HCl (total volume of 200 µl) was placed into the luminometer and background signals were recorded. The reaction was then initiated by adding 20 µl of 0.5 […]
(§6) mM purified luciferases into the reaction tube and the bioluminescence signals were monitored until it decayed to the background level.

[2] = test system: Pmluc-N230S; test: Steady-state kinetics of luciferase reactions (luminometer); assay type: biochemical, Pyrocoelia miyako; set-up: Substrate inhibition: unit not given here; details: for appKm: pH 8.0, 25 °C; for Relative kcat: relative to 2a compound
Experimental: as §1, §2
(§7) mM D-LH 2 analogues, 3 mM ATP, 6 mM MgCl2, and 10 µM luciferase in 0.2 ml of 100 mM HEPES-NaOH pH 8.0. The bioluminescence (BL) emission characteristics were recorded using a microplate reader in a BL mode (Thermo Scientific, Varioskan, LUX multimode). […]
BL of the
(§8) The reactions were initiated by mixing 25 µl of premixed solution of luciferases/D-LH 2 analogues with 125 µl of 3 mM ATP and 6 mM MgCl2 in 100 mM HEPES-NaOH (pH 8.0). The light intensity (relative light unit, RLU) during 0-300 sec was then collected to represent the overall luciferase activity which was further used for calculating kinetic parameters from the Michaelis-Menten equation. […]

[3] = target: T1, Fluc (Photinus pyralis, UniProt P08659); test: Bioluminescence quantum yield measurement; assay type: biochemical
Experimental: as §1, §2, §3, §4, §5, §6

[4] = target: T1, Fluc; test: Stopped-flow luminometry, single turnover light formation and decay; assay type: biochemical
Experimental: 1.5 Bioluminescence characterizations […]
One syringe was filled with a solution of 50 µM Fluc, 3 mM ATP, and 6 mM
in both syringes were mixed by a stopped-flow device and measured the light emission at 25 °C in triplicate. […]
2.8 Investigation of bioluminescence kinetics using stopped-flow luminometry
reactions were investigated using a stopped-flow spectrophotometer (employing a light-off mode for detecting the luminescence). One

[5] = test system: Eluc; test: Steady-state kinetics of luciferase reactions (luminometer); assay type: biochemical, Pyrearinus termitilluminans; details: for Substrate inhibition: concentration range tested 0-300; for appKm: pH 8.0, 25 °C
Experimental: as §1, §2, §7
BL of the
as §8

[6] = test system: SLR (HepG2); test: Sensitivity of live reporter cell detection (LOD of cell number); assay type: cell-based, human
[7] = test system: SLR; test: Steady-state kinetics of luciferase reactions (luminometer); assay type: biochemical, Phrixothrix hirtus; details: for Substrate inhibition: concentration range tested 0-300; for appKm: pH 8.0, 25 °C; for Relative kcat: relative to 2a compound
Experimental: as §1, §2, §7
BL of the
as §8

[8] = Absorption and fluorescence spectra of luciferins; assay type: physicochemical; details: 100 mM HEPES pH 8.0, 25 °C
Experimental: 2.6 Spectra of firefly luciferins
spectrophotometer (Agilent technologies, Cary 100 UV Vis, Cary Series UV-Vis Spectrophotometer).
were recorded by a microplate reader (Thermo Scientific, Varioskan, LUX multimode) in fluorescence mode. The reactions of D-LH 2 […]
Supplementary Table S5. […]
[e] ND denotes “not detectable”. […]

[9] = test system: Fluc (HepG2); test: Sensitivity of live reporter cell detection (LOD of cell number); assay type: cell-based, human; details: 100 µM, 30 min
[10] = F2 (red filter, >620 nm long-pass)

T1 sequence (P08659 whole entry): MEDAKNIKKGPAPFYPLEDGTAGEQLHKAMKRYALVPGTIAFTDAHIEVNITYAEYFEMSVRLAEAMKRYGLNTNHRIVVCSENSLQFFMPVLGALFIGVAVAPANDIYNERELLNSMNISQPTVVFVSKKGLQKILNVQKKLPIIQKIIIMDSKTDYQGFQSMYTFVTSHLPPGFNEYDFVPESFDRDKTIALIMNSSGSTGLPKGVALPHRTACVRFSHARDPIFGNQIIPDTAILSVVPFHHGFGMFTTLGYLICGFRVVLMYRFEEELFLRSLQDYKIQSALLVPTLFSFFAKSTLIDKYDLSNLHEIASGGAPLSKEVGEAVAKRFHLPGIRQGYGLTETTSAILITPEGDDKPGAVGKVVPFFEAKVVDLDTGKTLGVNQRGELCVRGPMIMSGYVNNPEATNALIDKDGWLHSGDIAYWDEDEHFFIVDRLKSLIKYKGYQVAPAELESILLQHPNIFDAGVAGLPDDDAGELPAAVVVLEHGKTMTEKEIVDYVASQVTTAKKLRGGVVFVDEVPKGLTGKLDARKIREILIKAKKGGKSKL

Row | SMILES | Quantum yield [1] | appKm ([2]; Pmluc-N230S) [µM] | Quantum yield [3] | Substrate inhibition [5] [µM] | appKm [5] [µM] | Limit of detection (LOD), cells ([6]; F0 (no filter)) [cells] | Limit of detection (LOD), cells ([6]; F2 (red filter)) [cells] | Substrate inhibition [7] [µM] | appKm [7] [µM] | Absorption (λmax) [8] [nm] | Fluorescence (λem) [8] | Limit of detection (LOD), cells ([9]; F0 (no filter)) [cells] | Limit of detection (LOD), cells [9, 10] [cells] | Relative kcat ([2]; Pmluc-N230S) | Observed rate constant (kobs) Light decay Faster phase ([4]; Fluc single turnover, 25 °C) | Observed rate constant (kobs) Light decay Slower phase ([4]; Fluc single turnover, 25 °C) | Observed rate constant (kobs) Light formation ([4]; Fluc single turnover, 25 °C) | Relative kcat [7] | also measured
1 | O=C(O)[C@H]1CSC(c2nc3ccc(O)cc3s2)=N1 [Compound 2a, D-luciferin, reference compound] | 0.16 and 0.160 ± 0.005 | 0.6 | 0.44 and 0.44 ± 0.04 | > 1e+06 | 0.1 | 802 | 1071 | > 4 | 0.5 | 327 | 543 nm and 523–560 nm | 601 | 897 | – | – | – | – | – | Observed rate constant (kobs) Light decay Faster phase [4]: 1.57 and 1.57 ± 0.02 s^−1; Observed rate constant (kobs) Light decay Slower phase [4]: 0.29 and 0.29 ± 0.00 s^−1; Observed rate constant (kobs) Light formation [4]: 6.64 and 6.64 ± 0.05 s^−1
2 | Cc1cc2nc(C3=N[C@@H](C(=O)O)CS3)sc2cc1O [Compound 2b, 5’-methyl-D-luciferin] | 0.19 and 0.190 ± 0.005 | 1.8 | 0.52 and 0.52 ± 0.01 | > 8 | 0.7 | 643 | 783 | > 14 | 0.7 | 323 | 523 nm and 523–560 nm | – | 795 | 518.5 | 1.55 s⁻¹ and 1.55 ± 0.15 s⁻¹ | 0.27 s⁻¹ and 0.27 ± 0.00 s⁻¹ | 9.63 s⁻¹ and 9.63 ± 0.04 s⁻¹ | 157.3 | Relative kcat (BL intensity), fold of 2a ([2]; Pmluc N230S, compared to 2a): 5.2 fold; Substrate inhibition ([2]; Pmluc-N230S, concentration range tested 0-300): > 4.0
3 | Cc1cc2nc(C3=N[C@@H](C(=O)O)CS3)sc2c(C)c1O [Compound 2c, 5’,7’-di-methyl-D-luciferin] | 0.16 and 0.160 ± 0.003 | 2.6 | 0.20 and 0.200 ± 0.007 | > 12.5 | 3.5 | 500 | 613 | > 2.1 | 0.5 | 334 | 560 nm and 523–560 nm | 713 | – | 48.1 | 0.27 s⁻¹ and 0.27 ± 0.00 s⁻¹ | 0.05 s⁻¹ and 0.05 ± 0.00 s⁻¹ | 7.28 s⁻¹ and 7.28 ± 0.02 s⁻¹ | 134.8 | kobs of light decay (faster and slower phases) slower than those of 2a and 2b ([4]; Fluc): 5–6 fold; Relative kcat ([5]; relative to 2a compound): 0.3
